This note sets out measurements from the OligoGym collection.

Values joined by “and” are separate entries in the source; they are usually repeats but may differ in a detail not shown here. Equal values may be shown once. HELM strings list units from the 5' end as sugar, base in round brackets, then linkage (d deoxyribose, r ribose, m 2'-O-methyl, p phosphodiester). Methylation of C is not given here. [moe] = 2'-O-(2-methoxyethyl) (MOE); [cEt] = constrained ethyl (cEt); [sp] = phosphorothioate linkage

For this data set, the target named is HBV. The settings on record: ASO.

For the substance “RNA1{[moe](A)[sp].[moe](T)[sp].[moe](T)[sp].d(T)[sp].d(A)[sp].d(T)[sp].d(G)[sp].d(C)[sp].d(C)[sp].d(T)[sp].d(A)[sp].d(C)[sp].d(A)[sp].[moe](G)[sp].[moe](C)[sp].[moe](C)[sp].[moe](T)}$$$$V2.0”, the target mRNA inhibition is 3% (HepG2, 0.0092593 µM); 11% (HepG2, 0.0277778 µM); 13% (HepG2, 0.0833333 µM); 41% (HepG2, 0.25 µM). For the substance “RNA1{[moe](G)[sp].[moe](C)[sp].d(A)[sp].d(G)[sp].d(T)[sp].d(A)[sp].d(T)[sp].d(G)[sp].d(G)[sp].d(A)[sp].d(T)[sp].[moe](C)[sp].[moe](G)[sp].[moe](G)[sp].[moe](C)[sp].[moe](A)}$$$$V2.0”, the target mRNA inhibition (HepG2, 0.0092593 µM) is 2%; the target mRNA inhibition (HepG2, 0.0277778 µM) was found to be 25%; the target mRNA inhibition (HepG2, 0.07 µM) is 76% and 73%; the target mRNA inhibition (HepG2, 0.0833333 µM) was found to be 44%; the target mRNA inhibition (HepG2, 0.25 µM) came out at 77%. For “RNA1{[moe](A)[sp].[moe](G)[sp].[moe](A)[sp].d(T)[sp].d(G)[sp].d(A)[sp].d(G)[sp].d(G)[sp].d(C)[sp].d(A)[sp].d(T)[sp].d(A)[sp].d(G)[sp].[cEt](C)[sp].[cEt](A)[sp].[cEt](G)}$$$$V2.0”, where the note is “HepG2, 0.07 µM”, the target mRNA inhibition was 50% and 70%.

“RNA1{[moe](G)[sp].[moe](A)[sp].[moe](A)[sp].[moe](C)[sp].[moe](C)[sp].d(A)[sp].d(C)[sp].d(T)[sp].d(G)[sp].d(A)[sp].d(A)[sp].d(C)[sp].d(A)[sp].d(A)[sp].[moe](A)[sp].[moe](T)}$$$$V2.0”: for the setting “HepG2, 0.07 µM”, the target mRNA inhibition is 34% and 36%. Same read-out and setting: then “RNA1{[moe](C)[sp].[moe](C)[sp].[moe](A)[sp].d(C)[sp].d(T)[sp].d(G)[sp].d(A)[sp].d(A)[sp].d(C)[sp].d(A)[sp].d(A)[sp].d(A)[sp].d(T)[sp].[cEt](G)[sp].[cEt](G)[sp].[cEt](C)}$$$$V2.0”, with 77% and 78%.

Take “RNA1{[moe](G)[sp].[moe](T)[sp].d(G)[sp].d(C)[sp].d(A)[sp].d(G)[sp].d(A)[sp].d(G)[sp].d(G)[sp].d(T)[sp].d(G)[sp].[moe](A)[sp].[moe](A)[sp].[moe](G)[sp].[moe](C)[sp].[moe](G)}$$$$V2.0”: under “HepG2, 0.07 µM”, the target mRNA inhibition is 53% and 42%. On the same count and under the same terms, the figure for “RNA1{[moe](C)[sp].[moe](G)[sp].[moe](A)[sp].[moe](A)[sp].d(C)[sp].d(C)[sp].d(A)[sp].d(C)[sp].d(T)[sp].d(G)[sp].d(A)[sp].d(A)[sp].d(C)[sp].[moe](A)[sp].[moe](A)[sp].[moe](A)[sp].[moe](T)}$$$$V2.0” is 48% and 41%. The same measure, in the same setting: then “RNA1{[moe](C)[sp].[moe](G)[sp].[moe](T)[sp].[moe](G)[sp].d(C)[sp].d(A)[sp].d(G)[sp].d(A)[sp].d(G)[sp].d(G)[sp].d(T)[sp].d(G)[sp].d(A)[sp].[moe](A)[sp].[moe](G)[sp].[moe](C)[sp].[moe](G)}$$$$V2.0”, with 58% and 43%. Regarding “RNA1{[moe](A)[sp].[moe](A)[sp].[moe](G)[sp].[moe](C)[sp].[moe](G)[sp].[moe](A)[sp].d(A)[sp].d(G)[sp].d(T)[sp].d(G)[sp].d(C)[sp].d(A)[sp].d(C)[sp].d(A)[sp].d(C)[sp].[moe](G)[sp].[moe](G)}$$$$V2.0”, the target mRNA inhibition reads like this: (HepG2, 0.0092593 µM) 20%; (HepG2, 0.0277778 µM) 36%; (HepG2, 0.07 µM) 92% and 73%; (HepG2, 0.0833333 µM) 54%; (HepG2, 0.25 µM) 76%. Consider “RNA1{[moe](G)[sp].[cEt](T)[sp].[cEt](G)[sp].d(C)[sp].d(A)[sp].d(G)[sp].d(A)[sp].d(G)[sp].d(G)[sp].d(T)[sp].d(G)[sp].d(A)[sp].d(A)[sp].[cEt](G)[sp].[cEt](C)[sp].[moe](G)}$$$$V2.0”, for which the target mRNA inhibition (HepG2, 0.07 µM) was 67% and 70%. Still for that read-out and setting: then “RNA1{[moe](G)[sp].[moe](A)[sp].[moe](A)[sp].[moe](C)[sp].[moe](T)[sp].d(G)[sp].d(G)[sp].d(A)[sp].d(G)[sp].d(C)[sp].d(C)[sp].d(A)[sp].d(C)[sp].d(C)[sp].[moe](A)[sp].[moe](G)[sp].[moe](C)}$$$$V2.0”, with 41% and 50%. Same read-out and setting: then “RNA1{[moe](A)[sp].[moe](G)[sp].d(G)[sp].d(T)[sp].d(G)[sp].d(A)[sp].d(A)[sp].d(G)[sp].d(C)[sp].d(G)[sp].d(A)[sp].[moe](A)[sp].[moe](G)[sp].[moe](T)[sp].[moe](G)[sp].[moe](C)[sp].[moe](A)}$$$$V2.0”, with 72% and 69%; and “RNA1{[moe](A)[sp].[moe](C)[sp].d(C)[sp].d(A)[sp].d(A)[sp].d(T)[sp].d(T)[sp].d(T)[sp].d(A)[sp].d(T)[sp].d(G)[sp].[moe](C)[sp].[moe](C)[sp].[moe](T)[sp].[moe](A)[sp].[moe](C)[sp].[moe](A)}$$$$V2.0”, with 54% and 47%; and “RNA1{[moe](G)[sp].[moe](T)[sp].[moe](T)[sp].[moe](C)[sp].[moe](C)[sp].[moe](G)[sp].d(C)[sp].d(A)[sp].d(G)[sp].d(T)[sp].d(A)[sp].d(T)[sp].d(G)[sp].d(G)[sp].d(A)[sp].[moe](T)[sp].[moe](C)}$$$$V2.0”, with 74% and 57%. For “RNA1{[moe](T)[sp].[moe](G)[sp].[moe](C)[sp].[moe](A)[sp].[moe](G)[sp].d(A)[sp].d(G)[sp].d(G)[sp].d(T)[sp].d(G)[sp].d(A)[sp].d(A)[sp].d(G)[sp].d(C)[sp].[moe](G)[sp].[moe](A)[sp].[moe](A)}$$$$V2.0”, the target mRNA inhibition (HepG2, 0.07 µM) was 55% and 56%. With “RNA1{[moe](A)[sp].[cEt](G)[sp].[cEt](T)[sp].d(T)[sp].d(C)[sp].d(C)[sp].d(G)[sp].d(C)[sp].d(A)[sp].d(G)[sp].d(T)[sp].d(A)[sp].d(T)[sp].[cEt](G)[sp].[cEt](G)[sp].[moe](A)}$$$$V2.0”, the target mRNA inhibition is 12% (HepG2, 0.0092593 µM); 25% (HepG2, 0.0277778 µM); 73% (HepG2, 0.0833333 µM); 84% (HepG2, 0.25 µM). For “RNA1{[moe](G)[sp].[moe](G)[sp].d(T)[sp].d(G)[sp].d(A)[sp].d(A)[sp].d(G)[sp].d(C)[sp].d(G)[sp].d(A)[sp].d(A)[sp].[moe](G)[sp].[moe](T)[sp].[moe](G)[sp].[moe](C)[sp].[moe](A)}$$$$V2.0”, the target mRNA inhibition (HepG2, 0.07 µM) was 65% and 62%.

On to “RNA1{[moe](G)[sp].[moe](C)[sp].[moe](A)[sp].d(G)[sp].d(A)[sp].d(G)[sp].d(G)[sp].d(T)[sp].d(G)[sp].d(A)[sp].d(A)[sp].d(G)[sp].d(C)[sp].[cEt](G)[sp].[cEt](A)[sp].[cEt](A)}$$$$V2.0”, for which the target mRNA inhibition (HepG2, 0.07 µM) was 71% and 50%. Same read-out and setting: then “RNA1{[moe](A)[sp].[moe](T)[sp].[moe](T)[sp].[moe](T)[sp].d(A)[sp].d(T)[sp].d(G)[sp].d(C)[sp].d(C)[sp].d(T)[sp].d(A)[sp].d(C)[sp].d(A)[sp].[moe](G)[sp].[moe](C)[sp].[moe](C)}$$$$V2.0”, with 52% and 49%.

Take “RNA1{[moe](A)[sp].[moe](G)[sp].[moe](G)[sp].[moe](C)[sp].[moe](A)[sp].[moe](T)[sp].d(A)[sp].d(G)[sp].d(C)[sp].d(A)[sp].d(G)[sp].d(C)[sp].d(A)[sp].d(G)[sp].d(G)[sp].[moe](A)[sp].[moe](T)}$$$$V2.0”: the target mRNA inhibition (HepG2, 0.07 µM) was 71% and 50%. The substance “RNA1{[moe](G)[sp].[moe](G)[sp].[moe](C)[sp].[moe](A)[sp].[moe](T)[sp].d(A)[sp].d(G)[sp].d(C)[sp].d(A)[sp].d(G)[sp].d(C)[sp].d(A)[sp].d(G)[sp].d(G)[sp].[moe](A)[sp].[moe](T)[sp].[moe](G)}$$$$V2.0” came in with a target mRNA inhibition (HepG2, 0.07 µM) of 0%.

On to “RNA1{[moe](G)[sp].[moe](G)[sp].[moe](C)[sp].d(A)[sp].d(T)[sp].d(A)[sp].d(G)[sp].d(C)[sp].d(A)[sp].d(G)[sp].d(C)[sp].d(A)[sp].[moe](G)[sp].[moe](G)[sp].[moe](A)[sp].[moe](T)[sp].[moe](G)}$$$$V2.0”, for which the target mRNA inhibition (HepG2, 0.0092593 µM) was found to be 16%; the target mRNA inhibition (HepG2, 0.0277778 µM) turned out to be 11%; the target mRNA inhibition (HepG2, 0.07 µM) was 68% and 66%; the target mRNA inhibition (HepG2, 0.0833333 µM) was found to be 40%; the target mRNA inhibition (HepG2, 0.25 µM) was determined as 66%. On to “RNA1{[moe](T)[sp].[moe](G)[sp].[moe](C)[sp].[moe](A)[sp].d(G)[sp].d(A)[sp].d(G)[sp].d(G)[sp].d(T)[sp].d(G)[sp].d(A)[sp].d(A)[sp].d(G)[sp].[moe](C)[sp].[moe](G)[sp].[moe](A)}$$$$V2.0”, for which, for the setting “HepG2, 0.07 µM”, the target mRNA inhibition is 60% and 68%. On the same count and under the same terms, then “RNA1{[moe](G)[sp].[moe](A)[sp].[moe](A)[sp].d(G)[sp].d(T)[sp].d(C)[sp].d(C)[sp].d(A)[sp].d(C)[sp].d(C)[sp].d(A)[sp].d(C)[sp].[moe](G)[sp].[moe](A)[sp].[moe](G)[sp].[moe](T)[sp].[moe](C)}$$$$V2.0”, with 33% and 23%. Take “RNA1{[moe](T)[sp].[moe](G)[sp].[moe](C)[sp].[moe](A)[sp].d(G)[sp].d(A)[sp].d(G)[sp].d(G)[sp].d(T)[sp].d(G)[sp].d(A)[sp].d(A)[sp].d(G)[sp].[moe](C)[sp].[moe](G)[sp].[moe](A)[sp].[moe](A)}$$$$V2.0”: the target mRNA inhibition (HepG2, 0.07 µM) was 68% and 58%.

Take “RNA1{[moe](G)[sp].[cEt](A)[sp].d(A)[sp].d(G)[sp].d(T)[sp].d(C)[sp].d(C)[sp].d(A)[sp].d(C)[sp].d(C)[sp].d(A)[sp].d(C)[sp].[cEt](G)[sp].[moe](A)[sp].[cEt](G)[sp].[moe](T)}$$$$V2.0”: the target mRNA inhibition (HepG2, 0.07 µM) was 43% and 50%. Still for that read-out and setting: then “RNA1{[moe](C)[sp].[moe](T)[sp].[moe](G)[sp].[moe](G)[sp].[moe](A)[sp].d(G)[sp].d(C)[sp].d(C)[sp].d(A)[sp].d(C)[sp].d(C)[sp].d(A)[sp].d(G)[sp].d(C)[sp].[moe](A)[sp].[moe](G)[sp].[moe](G)}$$$$V2.0”, with 42% and 44%.

“RNA1{[moe](A)[sp].[moe](A)[sp].[moe](T)[sp].d(T)[sp].d(T)[sp].d(A)[sp].d(T)[sp].d(G)[sp].d(C)[sp].d(C)[sp].d(T)[sp].d(A)[sp].[moe](C)[sp].[moe](A)[sp].[moe](G)[sp].[moe](C)[sp].[moe](C)}$$$$V2.0”: the target mRNA inhibition (HepG2, 0.07 µM) is 56% and 39%.
